How the values were obtained:
[1] = biological target: ErbB2 with Exon 20 YVMA insertion (HER2-YVMA) (Homo sapiens (Human), UniProt P04626, INS775YVMA); test: Cellular Phosphorylation Assay, Assay 4 (constitutive ErbB2 phosphorylation, NIH 3T3 cells); assay type: cell-based
[2] = tested on: BCRP; test: BCRP MDCKII efflux assay (Assay 7); assay type: in vitro ADME; conditions: dog; efflux ratio Papp(B-A)/Papp(A-B), BCRP MDCKII cells; read-out: Assay 7 Pe Ratio
Description: (§1) Assay conditions included with and without the BCRP-specific inhibitor, KO143, at a concentration of 0.3 μM to ascertain the contribution of BCRP to the efflux value of the test compound.
(§2) Final organic concentration in the assay was 1%.

[3] = biological target: ErbB2 WT (Homo sapiens (Human), UniProt P04626); test: ErbB Enzyme Assay (HTRF KinEASE-TK), Assay 2; assay type: biochemical
Sequence of ErbB2 WT (P04626 23-1255): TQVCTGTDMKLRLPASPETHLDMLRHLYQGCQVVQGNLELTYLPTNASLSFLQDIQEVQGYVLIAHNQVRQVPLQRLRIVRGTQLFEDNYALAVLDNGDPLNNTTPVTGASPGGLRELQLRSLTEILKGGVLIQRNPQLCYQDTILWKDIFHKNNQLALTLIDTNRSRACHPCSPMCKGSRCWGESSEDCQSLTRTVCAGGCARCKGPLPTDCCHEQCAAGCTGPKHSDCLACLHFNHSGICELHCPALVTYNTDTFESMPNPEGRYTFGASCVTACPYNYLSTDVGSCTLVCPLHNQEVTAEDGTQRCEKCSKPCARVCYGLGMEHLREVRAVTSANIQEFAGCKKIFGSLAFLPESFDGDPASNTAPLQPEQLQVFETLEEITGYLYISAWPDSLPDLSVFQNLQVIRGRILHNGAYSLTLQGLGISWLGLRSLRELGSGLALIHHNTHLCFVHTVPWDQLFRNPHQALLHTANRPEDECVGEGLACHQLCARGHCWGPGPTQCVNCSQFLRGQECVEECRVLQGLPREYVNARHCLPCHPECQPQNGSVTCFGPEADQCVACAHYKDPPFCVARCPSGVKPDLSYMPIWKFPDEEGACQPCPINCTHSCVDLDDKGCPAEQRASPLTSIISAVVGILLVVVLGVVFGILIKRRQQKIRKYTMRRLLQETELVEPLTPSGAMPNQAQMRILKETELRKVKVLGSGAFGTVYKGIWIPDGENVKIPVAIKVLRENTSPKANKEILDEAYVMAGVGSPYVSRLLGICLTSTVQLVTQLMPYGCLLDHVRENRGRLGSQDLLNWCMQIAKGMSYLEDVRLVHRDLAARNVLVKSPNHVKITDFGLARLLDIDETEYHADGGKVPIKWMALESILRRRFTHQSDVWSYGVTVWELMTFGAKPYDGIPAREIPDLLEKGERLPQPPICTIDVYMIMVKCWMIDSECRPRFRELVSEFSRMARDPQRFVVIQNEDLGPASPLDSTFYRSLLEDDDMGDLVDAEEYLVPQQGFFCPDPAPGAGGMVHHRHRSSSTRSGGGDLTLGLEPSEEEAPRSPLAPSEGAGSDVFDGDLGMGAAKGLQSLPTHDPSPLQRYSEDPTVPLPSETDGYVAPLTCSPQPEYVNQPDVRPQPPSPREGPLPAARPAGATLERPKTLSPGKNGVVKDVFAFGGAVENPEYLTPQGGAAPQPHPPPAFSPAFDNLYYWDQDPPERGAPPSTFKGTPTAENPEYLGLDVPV

[4] = biological target: EGFR wild type (EGFR WT) (Homo sapiens (Human), UniProt P00533); test: Cellular Phosphorylation Assay, Assay 5 (EGF-stimulated EGFR phosphorylation, NIH 3T3 cells); assay type: cell-based
[5] = biological target: EGFR (Homo sapiens (Human), UniProt P00533); test: ErbB Enzyme Assay (HTRF KinEASE-TK), Assay 3; assay type: biochemical
[6] = biological target: MDR1 (P-gp) (Homo sapiens (Human), UniProt P08183); test: in vitro; conditions: pig, LLC-PK1
Sequence of MDR1 (P-gp) (P08183 whole entry): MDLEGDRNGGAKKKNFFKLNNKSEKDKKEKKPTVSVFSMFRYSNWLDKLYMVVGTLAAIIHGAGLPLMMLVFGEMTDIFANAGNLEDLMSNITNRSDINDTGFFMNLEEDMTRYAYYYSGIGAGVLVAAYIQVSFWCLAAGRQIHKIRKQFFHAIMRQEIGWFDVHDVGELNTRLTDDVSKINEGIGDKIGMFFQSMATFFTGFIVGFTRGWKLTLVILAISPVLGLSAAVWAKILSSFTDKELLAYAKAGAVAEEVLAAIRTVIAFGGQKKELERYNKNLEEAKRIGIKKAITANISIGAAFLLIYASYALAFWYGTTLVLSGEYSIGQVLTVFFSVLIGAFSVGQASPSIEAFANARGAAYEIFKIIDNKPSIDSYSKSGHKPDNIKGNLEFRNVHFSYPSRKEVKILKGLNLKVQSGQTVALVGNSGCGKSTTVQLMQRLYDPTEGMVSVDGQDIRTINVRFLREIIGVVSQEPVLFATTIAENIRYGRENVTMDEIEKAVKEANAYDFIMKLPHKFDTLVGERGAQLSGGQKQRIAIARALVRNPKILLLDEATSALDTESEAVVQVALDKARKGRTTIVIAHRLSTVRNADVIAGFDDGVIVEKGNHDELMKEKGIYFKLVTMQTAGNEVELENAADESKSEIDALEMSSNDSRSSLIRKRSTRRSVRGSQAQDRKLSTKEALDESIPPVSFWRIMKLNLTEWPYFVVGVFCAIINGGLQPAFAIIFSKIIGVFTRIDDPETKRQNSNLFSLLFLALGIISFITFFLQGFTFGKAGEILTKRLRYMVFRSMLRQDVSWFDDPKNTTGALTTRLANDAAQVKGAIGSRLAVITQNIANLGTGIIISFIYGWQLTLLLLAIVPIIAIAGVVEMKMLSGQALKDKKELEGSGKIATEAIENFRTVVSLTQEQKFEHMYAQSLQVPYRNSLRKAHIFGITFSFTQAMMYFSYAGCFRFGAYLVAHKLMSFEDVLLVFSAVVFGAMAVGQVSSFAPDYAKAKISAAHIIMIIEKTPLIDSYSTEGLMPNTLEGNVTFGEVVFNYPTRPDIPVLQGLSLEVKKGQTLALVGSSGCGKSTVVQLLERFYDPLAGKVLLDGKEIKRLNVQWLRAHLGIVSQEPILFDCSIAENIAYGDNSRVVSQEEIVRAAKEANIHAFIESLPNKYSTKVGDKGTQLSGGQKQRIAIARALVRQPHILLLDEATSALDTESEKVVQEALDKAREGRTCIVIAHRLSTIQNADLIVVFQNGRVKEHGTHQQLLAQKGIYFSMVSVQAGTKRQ

[7] = biological target: BCRP (Homo sapiens (Human), UniProt Q9UNQ0); test: BCRP MDCKII efflux assay (Assay 7); assay type: in vitro ADME; conditions: dog; efflux ratio Papp(B-A)/Papp(A-B), BCRP MDCKII cells; read-out: Assay 7 Pe Ratio
Sequence of BCRP (Homo sapiens (Human), UniProt Q9UNQ0) (Q9UNQ0 whole entry): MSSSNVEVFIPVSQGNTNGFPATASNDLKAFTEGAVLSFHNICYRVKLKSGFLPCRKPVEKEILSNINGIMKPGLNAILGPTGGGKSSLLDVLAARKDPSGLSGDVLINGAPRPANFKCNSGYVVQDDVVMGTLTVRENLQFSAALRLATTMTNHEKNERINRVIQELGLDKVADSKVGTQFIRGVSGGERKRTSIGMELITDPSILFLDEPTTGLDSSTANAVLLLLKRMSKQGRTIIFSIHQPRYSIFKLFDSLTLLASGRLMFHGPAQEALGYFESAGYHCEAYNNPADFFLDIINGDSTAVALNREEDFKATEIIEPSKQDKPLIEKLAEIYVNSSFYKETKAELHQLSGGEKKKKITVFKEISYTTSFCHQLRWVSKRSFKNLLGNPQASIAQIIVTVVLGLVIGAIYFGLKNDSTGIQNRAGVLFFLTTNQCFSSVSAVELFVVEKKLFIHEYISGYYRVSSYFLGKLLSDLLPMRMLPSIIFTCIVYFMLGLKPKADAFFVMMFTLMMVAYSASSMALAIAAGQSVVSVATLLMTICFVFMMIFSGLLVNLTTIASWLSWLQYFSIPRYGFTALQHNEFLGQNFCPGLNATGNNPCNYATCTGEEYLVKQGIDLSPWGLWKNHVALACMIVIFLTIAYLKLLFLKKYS
Description: as §1, §2

[8] = EGF-stimulated EGFR WT phosphorylation
[9] = cellular ErbB2 YVMA phosphorylation
[10] = cellular EGFR WT phosphorylation, EGF-stimulated

Sequence of ErbB2 with Exon 20 YVMA insertion (HER2-YVMA) (P04626 other isoform, or with tags, fused parts or gaps ins YVMA behind 775): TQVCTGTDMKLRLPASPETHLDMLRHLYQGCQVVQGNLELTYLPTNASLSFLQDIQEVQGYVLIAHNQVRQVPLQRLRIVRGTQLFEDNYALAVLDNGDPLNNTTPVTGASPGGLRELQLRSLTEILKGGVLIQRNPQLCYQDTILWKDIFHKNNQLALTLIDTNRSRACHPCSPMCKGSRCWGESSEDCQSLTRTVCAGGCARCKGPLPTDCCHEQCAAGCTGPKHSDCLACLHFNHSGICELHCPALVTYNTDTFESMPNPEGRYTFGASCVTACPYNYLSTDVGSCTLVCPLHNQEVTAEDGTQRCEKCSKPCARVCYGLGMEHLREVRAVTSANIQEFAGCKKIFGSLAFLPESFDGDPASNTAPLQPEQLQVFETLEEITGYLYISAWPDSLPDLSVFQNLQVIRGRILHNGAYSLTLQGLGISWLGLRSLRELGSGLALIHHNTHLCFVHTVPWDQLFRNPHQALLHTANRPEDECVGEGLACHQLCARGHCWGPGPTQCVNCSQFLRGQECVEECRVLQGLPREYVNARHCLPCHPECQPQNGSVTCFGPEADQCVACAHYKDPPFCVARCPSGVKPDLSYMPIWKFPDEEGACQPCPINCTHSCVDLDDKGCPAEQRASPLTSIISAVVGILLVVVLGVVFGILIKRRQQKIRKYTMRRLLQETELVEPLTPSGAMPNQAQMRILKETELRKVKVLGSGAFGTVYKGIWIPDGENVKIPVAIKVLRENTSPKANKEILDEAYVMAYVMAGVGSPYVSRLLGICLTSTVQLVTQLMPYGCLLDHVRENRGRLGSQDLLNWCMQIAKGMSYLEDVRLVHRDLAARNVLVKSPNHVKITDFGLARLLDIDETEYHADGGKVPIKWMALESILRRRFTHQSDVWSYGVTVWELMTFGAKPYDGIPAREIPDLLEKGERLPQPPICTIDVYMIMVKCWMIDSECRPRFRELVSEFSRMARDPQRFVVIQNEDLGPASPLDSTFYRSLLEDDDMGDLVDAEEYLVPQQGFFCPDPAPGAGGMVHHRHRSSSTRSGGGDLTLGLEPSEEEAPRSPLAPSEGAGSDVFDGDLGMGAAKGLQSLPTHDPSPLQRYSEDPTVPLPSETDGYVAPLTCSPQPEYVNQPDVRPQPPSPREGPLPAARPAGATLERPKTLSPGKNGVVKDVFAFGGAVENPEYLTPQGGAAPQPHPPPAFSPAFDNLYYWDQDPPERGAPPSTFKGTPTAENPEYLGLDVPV

Row | IC50 ([1]; ErbB2 YVMA phosphorylation) | IC50 ([3]; ErbB2 WT enzyme) | IC50 [4, 8] | IC50 ([5]; EGFR enzyme) | efflux ratio at 2 h, 1 µM [6] | efflux ratio at 2 h, 1 µM [7] | IC50 [1, 9] | IC50 ([3]; ErbB2 WT enzyme assay) | IC50 [4, 10] | IC50 ([5]; EGFR enzyme assay) | Structure (SMILES) | efflux ratio at 2 h, 1 µM [2]
1 | 16.7 nM | 13.3 nM | 1450 nM | 401 nM | 1.1 |  |  |  |  |  | C=CC(=O)N1C[C@@H]2C[C@H]1C[C@H]2c1ccc2ncnc(Nc3ccc(Oc4ccc5c(c4)ncn5C)c(C)c3F)c2n1 (racemic) [Example 203, rac-1-((1S,4R,5R)-5-(4-((2-fluoro-3-methyl-4-((1-methyl-1H-benzo[d]imidazol-5-yl)oxy)phenyl)amino)pyrido[3,2-d]pyrimidin-6-yl)-2-azabicyclo[2.2.1]heptan-2-yl)prop-2-en-1-one] | 0.6
2 | 24.4 nM | 48.5 nM | 3620 nM | 6690 nM | 1 | 2.4 |  |  |  |  | CC#CC(=O)N1CC[C@@H]2C[C@H]1CN2c1ccc2ncnc(Nc3ccc(Oc4ccn5ncnc5c4)c(C)c3F)c2n1 [Example 176, 1-((1 S,5R)-6-(4-((4-([1,2,4]triazolo[1,5-a]pyridin-7-yloxy)-2-fluoro-3-methylphenyl)amino)pyrido[3,2-d]pyrimidin-6-yl)-2,6-diazabicyclo[3.2.1]octan-2-yl)but-2-yn-1-one] | 
3 | 7.7 nM | 41 nM | 254 nM | 221 nM | 1.9 | 3.8 |  |  |  |  | C=CC(=O)N1C[C@@H]2C[C@H]1CN2c1ccc2ncnc(Nc3ccc(Oc4ccc5c(c4)ncn5C)c(C)c3F)c2n1 [Example 84, 1-((1S,4S)-5-(4-((2-fluoro-3-methyl-4-((1-methyl-1H-benzo[d]imidazol-5-yl)oxy)phenyl)amino)pyrido[3,2-d]pyrimidin-6-yl)-2,5-diazabicyclo[2.2.1]heptan-2-yl)prop-2-en-1-one] | 
4 | 32.7 nM | 24.4 nM | ≥ 5000 nM | 1420 nM | 1.4 | 2.6 |  |  |  |  | C=CC(=O)N1C[C@H]2CC[C@@H]1C[C@H]2c1ccc2ncnc(Nc3ccc(Oc4ccn5ncnc5c4)c(C)c3F)c2n1 (racemic) [Example 218, rac-1-((1R,4S,5R)-5-(4-((4-([1,2,4]triazolo[1,5-a]pyridin-7-yloxy)-2-fluoro-3-methylphenyl)amino)pyrido[3,2-d]pyrimidin-6-yl)-2-azabicyclo[2.2.2]octan-2-yl)prop-2-en-1-one] | 
5 | 2.3 nM | 6 nM | 87.6 nM | 200 nM | 1.5 | 5 |  |  |  |  | C=CC(=O)N1CCN(c2ccc3ncnc(Nc4ccc(Oc5ccn6ncnc6c5)c(Cl)c4F)c3n2)CC1 [Example 30, 1-(4-(4-((4-([1,2,4]triazolo[1,5-a]pyridin-7-yloxy)-3-chloro-2-fluorophenyl)amino)pyrido[3,2-d]pyrimidin-6-yl)piperazin-1-yl)prop-2-en-1-one] | 
6 |  |  |  |  | 1.6 | 3 | 29.2 nM | 206 nM | ≥ 5000 nM | ≥ 10000 nM | C=CC(=O)N1CCCC(c2ccc3ncnc(Nc4cc(C)c(Oc5cnc6c(c5)ncn6C)cc4F)c3n2)CC1 (stereo not drawn) [Example 412] | 
7 | 19.9 nM | 141 nM | ≥ 5000 nM | ≥ 10000 nM | 3 | 2.4 |  |  |  |  | C=CC(=O)N1CCCN(c2ccc3ncnc(Nc4ccc(Oc5ccc6c(c5)ncn6C)c(C)c4F)c3n2)CC1(C)C [Example 69, 1-(4-(4-((2-fluoro-3-methyl-4-((1-methyl-1H-benzo[d]imidazol-5-yl)oxy)phenyl)amino)pyrido[3,2-d]pyrimidin-6-yl)-2,2-dimethyl-1,4-diazepan-1-yl)prop-2-en-1-one] | 
8 | 32.7 nM | 271 nM | ≥ 5000 nM | ≥ 10000 nM | 1.2 | 1.6 |  |  |  |  | C=CC(=O)N1CCC(c2ccc3ncnc(Nc4ccc(Oc5ccc6c(c5)ncn6C)c(C)c4F)c3n2)CC1(C)C (stereo not drawn) [Example 127, 1-(4-(4-((2-fluoro-3-methyl-4-((1-methyl-1H-benzo[d]imidazol-5-yl)oxy)phenyl)amino)pyrido[3,2-d]pyrimidin-6-yl)-2,2-dimethylpiperidin-1-yl)prop-2-en-1-one] | 
9 |  |  |  |  | 3.2 | 1.8 | 28.1 nM | 40.7 nM | 1700 nM | 1800 nM | C=CC(=O)N1C[C@@H]2C[C@H](c3ccc4ncnc(Nc5cc(C)c(Oc6ccc7c(c6)ncn7C)cc5F)c4n3)C[C@H]1C2 [Example 388] | 
10 |  |  |  |  | 1 | 2 | 16.5 nM | 14.8 nM | ≥ 5000 nM | ≥ 10000 nM | C=CC(=O)N1CCN(c2ccc3ncnc(Nc4cc(Cl)c(Oc5ccn6ncnc6c5)cc4F)c3n2)C[C@@H]1C1CC1 [Example 286] | 
11 | 13.4 nM | 282 nM | ≥ 5000 nM | ≥ 10000 nM | 2 | 2 |  |  |  |  | C=CC(=O)N1C[C@@H]2C[C@H]1CN(c1ccc3ncnc(Nc4ccc(Oc5ccc6c(c5)ncn6C)c(C)c4F)c3n1)C2 [Example 109, 1-((1R,5S)-3-(4-((2-fluoro-3-methyl-4-((1-methyl-1H-benzo[d]imidazol-5-yl)oxy)phenyl)amino)pyrido[3,2-d]pyrimidin-6-yl)-3,6-diazabicyclo[3.2.1]octan-6-yl)prop-2-en-1-one] | 
12 | 60.6 nM | 260 nM | ≥ 5000 nM | ≥ 10000 nM | 2 | 1.5 |  |  |  |  | C=CC(=O)N1CCC(Oc2ccc3ncnc(Nc4ccc(Oc5ccc6cn(C)nc6c5)c(C)c4)c3n2)CC1 [Example 3, 1-(4-((4-((3-methyl-4-((2-methyl-2H-indazol-6-yl)oxy)phenyl)amino)pyrido[3,2-d]pyrimidin-6-yl)oxy)piperidin-1-yl)prop-2-en-1-one] | 
13 | 4.2 nM | 17.4 nM | 146 nM | 170 nM | 1.4 | 4 |  |  |  |  | C=CC(=O)N1CC[C@@H]2C[C@H]1CN2c1ccc2ncnc(Nc3ccc(Oc4ccn5ncnc5c4)c(C)c3F)c2n1 [Example 65, 1-((1S,5R)-6-(4-((4-([1,2,4]triazolo[1,5-a]pyridin-7-yloxy)-2-fluoro-3-methylphenyl)amino)pyrido[3,2-d]pyrimidin-6-yl)-2,6-diazabicyclo[3.2.1]octan-2-yl)prop-2-en-1-one] | 
14 | 12.6 nM | 58.2 nM | 4400 nM | 7320 nM | 2 | 3.9 |  |  |  |  | C=CC(=O)N1CCN(c2ccc3ncnc(Nc4cc(C)c(Oc5ccc6c(c5)ncn6C)cc4F)c3n2)CC1(C)C [Example 82, 1-(4-(4-((2-fluoro-5-methyl-4-((1-methyl-1H-benzo[d]imidazol-5-yl)oxy)phenyl)amino)pyrido[3,2-d]pyrimidin-6-yl)-2,2-dimethylpiperazin-1-yl)prop-2-en-1-one] | 
15 | 17 nM | 14.7 nM | ≥ 5000 nM | 778 nM | 2.5 | 2.9 |  |  |  |  | C=CC(=O)N1CCC(c2nc3c(Nc4ccc(Oc5ccc6c(c5)ncn6C)c(C)c4)ncnc3cc2OC)CC1 [Example 42, 1-(4-(7-methoxy-4-((3-methyl-4-((1-methyl-1H-benzo[d]imidazol-5-yl)oxy)phenyl)amino)pyrido[3,2-d]pyrimidin-6-yl)piperidin-1-yl)prop-2-en-1-one] | 
16 |  |  |  |  | 1.1 | 3.8 | 9.4 nM | 101 nM | 2890 nM | 4830 nM | C=CC(=O)N1CCN(c2ccc3ncnc(Nc4ccc(Oc5cnc6c(c5)ncn6C)c(C)c4F)c3n2)C[C@H]1C [Example 433] | 
17 | 5.7 nM | 9.7 nM | 156 nM | 129 nM | 1.9 | 3.6 |  |  |  |  | C=CC(=O)N1CC[C@@H]2C[C@H]1CN2c1ccc2ncnc(Nc3cc(Cl)c(Oc4ccn5ncnc5c4)cc3F)c2n1 [Example 177, 1-((1 S,5R)-6-(4-((4-([1,2,4]triazolo[1,5-a]pyridin-7-yloxy)-5-chloro-2-fluorophenyl)amino)pyrido[3,2-d]pyrimidin-6-yl)-2,6-diazabicyclo[3.2.1]octan-2-yl)prop-2-en-1-one] | 

Row | Structure (SMILES) | IC50 ([1]; ErbB2 YVMA phosphorylation) | IC50 ([3]; ErbB2 WT enzyme) | IC50 [4, 8] | IC50 ([5]; EGFR enzyme) | efflux ratio at 2 h, 1 µM [6] | efflux ratio at 2 h, 1 µM [7] | IC50 [1, 9] | IC50 ([3]; ErbB2 WT enzyme assay) | IC50 [4, 10] | IC50 ([5]; EGFR enzyme assay) | efflux ratio at 2 h, 1 µM [2]
18 | C=CC(=O)N1CC2CCC(C1)N2c1ccc2ncnc(Nc3cc(C)c(Oc4ccn5ncnc5c4)cc3F)c2n1 [Example 454] |  |  |  |  | 0.8 |  | 14.1 nM | 35.6 nM | 680 nM | 1180 nM | 0.6
19 | C=CC(=O)N1[C@@H]2CC[C@H]1[C@H](c1ccc3ncnc(Nc4ccc(Oc5ccc6c(c5)ncn6C)c(C)c4F)c3n1)C2 [Example 394] |  |  |  |  | 2.6 | 1.8 | 10.7 nM | 11.4 nM | ≥ 5000 nM | 252 nM | 
20 | C=CC(=O)N1[C@@H]2CC[C@H]1[C@H](c1ccc3ncnc(Nc4cc(C)c(Oc5ccc6c(c5)ncn6C)cc4F)c3n1)C2 [Example 393] |  |  |  |  | 1.8 | 2.2 | 15.4 nM | 13.4 nM | ≥ 5000 nM | 715 nM | 
